The record followed here is ChEMBL document CHEMBL3991601, “The target landscape of clinical kinase drugs” (Science, 2017).

Calls of active or inactive are those of the source.

Assay [1] addresses T1, Breakpoint cluster region protein (Homo sapiens, UniProt P11274).
T1 sequence (P11274 whole entry): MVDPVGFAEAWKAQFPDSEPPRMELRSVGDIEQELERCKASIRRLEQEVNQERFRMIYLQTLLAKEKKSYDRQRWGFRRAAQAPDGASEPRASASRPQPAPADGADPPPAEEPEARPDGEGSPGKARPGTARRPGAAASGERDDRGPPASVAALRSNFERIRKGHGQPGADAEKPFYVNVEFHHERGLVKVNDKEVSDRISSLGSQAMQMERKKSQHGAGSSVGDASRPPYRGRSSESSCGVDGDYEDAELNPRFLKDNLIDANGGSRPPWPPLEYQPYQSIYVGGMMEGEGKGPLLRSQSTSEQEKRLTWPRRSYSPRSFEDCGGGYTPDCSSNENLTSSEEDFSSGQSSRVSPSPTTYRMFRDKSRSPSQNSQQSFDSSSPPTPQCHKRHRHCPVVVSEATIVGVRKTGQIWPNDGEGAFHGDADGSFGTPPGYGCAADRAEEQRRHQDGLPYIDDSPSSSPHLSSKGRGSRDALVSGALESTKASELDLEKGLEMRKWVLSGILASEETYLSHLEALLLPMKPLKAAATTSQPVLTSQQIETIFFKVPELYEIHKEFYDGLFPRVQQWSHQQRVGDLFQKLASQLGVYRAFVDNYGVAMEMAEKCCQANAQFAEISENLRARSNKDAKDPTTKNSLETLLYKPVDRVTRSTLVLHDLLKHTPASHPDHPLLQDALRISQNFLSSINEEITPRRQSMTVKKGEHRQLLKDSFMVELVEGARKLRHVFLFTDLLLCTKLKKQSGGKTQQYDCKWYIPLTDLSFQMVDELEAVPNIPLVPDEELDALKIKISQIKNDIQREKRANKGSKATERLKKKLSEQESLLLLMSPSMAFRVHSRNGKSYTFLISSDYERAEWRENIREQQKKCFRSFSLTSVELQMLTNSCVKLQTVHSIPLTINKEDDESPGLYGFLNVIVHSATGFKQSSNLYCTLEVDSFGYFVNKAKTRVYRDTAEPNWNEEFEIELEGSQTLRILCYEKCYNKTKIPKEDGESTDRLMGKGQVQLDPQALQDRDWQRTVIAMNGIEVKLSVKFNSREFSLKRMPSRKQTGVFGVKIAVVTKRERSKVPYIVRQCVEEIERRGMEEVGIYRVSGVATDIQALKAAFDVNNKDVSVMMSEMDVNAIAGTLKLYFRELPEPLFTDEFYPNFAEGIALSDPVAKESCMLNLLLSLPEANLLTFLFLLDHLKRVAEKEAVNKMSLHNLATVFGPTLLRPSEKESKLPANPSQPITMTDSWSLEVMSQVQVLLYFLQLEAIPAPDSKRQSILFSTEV

Assay [2] concerns the target T2, Dual specificity mitogen-activated protein kinase kinase 3 (Homo sapiens, UniProt P46734).
T2 sequence (P46734 whole entry): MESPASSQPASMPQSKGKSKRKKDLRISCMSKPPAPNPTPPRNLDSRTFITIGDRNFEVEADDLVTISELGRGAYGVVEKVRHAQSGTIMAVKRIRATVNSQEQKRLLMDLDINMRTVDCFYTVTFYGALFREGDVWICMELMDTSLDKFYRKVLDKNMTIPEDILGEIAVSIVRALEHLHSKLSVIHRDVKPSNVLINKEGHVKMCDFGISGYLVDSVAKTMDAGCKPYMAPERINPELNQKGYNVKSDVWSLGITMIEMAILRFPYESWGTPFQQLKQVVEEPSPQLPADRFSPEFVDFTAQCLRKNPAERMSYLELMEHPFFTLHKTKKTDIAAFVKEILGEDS

In assay [3] the target is U5 small nuclear ribonucleoprotein 200 kDa helicase (Homo sapiens, UniProt O75643).
U5 small nuclear ribonucleoprotein 200 kDa helicase, sequence (O75643 whole entry): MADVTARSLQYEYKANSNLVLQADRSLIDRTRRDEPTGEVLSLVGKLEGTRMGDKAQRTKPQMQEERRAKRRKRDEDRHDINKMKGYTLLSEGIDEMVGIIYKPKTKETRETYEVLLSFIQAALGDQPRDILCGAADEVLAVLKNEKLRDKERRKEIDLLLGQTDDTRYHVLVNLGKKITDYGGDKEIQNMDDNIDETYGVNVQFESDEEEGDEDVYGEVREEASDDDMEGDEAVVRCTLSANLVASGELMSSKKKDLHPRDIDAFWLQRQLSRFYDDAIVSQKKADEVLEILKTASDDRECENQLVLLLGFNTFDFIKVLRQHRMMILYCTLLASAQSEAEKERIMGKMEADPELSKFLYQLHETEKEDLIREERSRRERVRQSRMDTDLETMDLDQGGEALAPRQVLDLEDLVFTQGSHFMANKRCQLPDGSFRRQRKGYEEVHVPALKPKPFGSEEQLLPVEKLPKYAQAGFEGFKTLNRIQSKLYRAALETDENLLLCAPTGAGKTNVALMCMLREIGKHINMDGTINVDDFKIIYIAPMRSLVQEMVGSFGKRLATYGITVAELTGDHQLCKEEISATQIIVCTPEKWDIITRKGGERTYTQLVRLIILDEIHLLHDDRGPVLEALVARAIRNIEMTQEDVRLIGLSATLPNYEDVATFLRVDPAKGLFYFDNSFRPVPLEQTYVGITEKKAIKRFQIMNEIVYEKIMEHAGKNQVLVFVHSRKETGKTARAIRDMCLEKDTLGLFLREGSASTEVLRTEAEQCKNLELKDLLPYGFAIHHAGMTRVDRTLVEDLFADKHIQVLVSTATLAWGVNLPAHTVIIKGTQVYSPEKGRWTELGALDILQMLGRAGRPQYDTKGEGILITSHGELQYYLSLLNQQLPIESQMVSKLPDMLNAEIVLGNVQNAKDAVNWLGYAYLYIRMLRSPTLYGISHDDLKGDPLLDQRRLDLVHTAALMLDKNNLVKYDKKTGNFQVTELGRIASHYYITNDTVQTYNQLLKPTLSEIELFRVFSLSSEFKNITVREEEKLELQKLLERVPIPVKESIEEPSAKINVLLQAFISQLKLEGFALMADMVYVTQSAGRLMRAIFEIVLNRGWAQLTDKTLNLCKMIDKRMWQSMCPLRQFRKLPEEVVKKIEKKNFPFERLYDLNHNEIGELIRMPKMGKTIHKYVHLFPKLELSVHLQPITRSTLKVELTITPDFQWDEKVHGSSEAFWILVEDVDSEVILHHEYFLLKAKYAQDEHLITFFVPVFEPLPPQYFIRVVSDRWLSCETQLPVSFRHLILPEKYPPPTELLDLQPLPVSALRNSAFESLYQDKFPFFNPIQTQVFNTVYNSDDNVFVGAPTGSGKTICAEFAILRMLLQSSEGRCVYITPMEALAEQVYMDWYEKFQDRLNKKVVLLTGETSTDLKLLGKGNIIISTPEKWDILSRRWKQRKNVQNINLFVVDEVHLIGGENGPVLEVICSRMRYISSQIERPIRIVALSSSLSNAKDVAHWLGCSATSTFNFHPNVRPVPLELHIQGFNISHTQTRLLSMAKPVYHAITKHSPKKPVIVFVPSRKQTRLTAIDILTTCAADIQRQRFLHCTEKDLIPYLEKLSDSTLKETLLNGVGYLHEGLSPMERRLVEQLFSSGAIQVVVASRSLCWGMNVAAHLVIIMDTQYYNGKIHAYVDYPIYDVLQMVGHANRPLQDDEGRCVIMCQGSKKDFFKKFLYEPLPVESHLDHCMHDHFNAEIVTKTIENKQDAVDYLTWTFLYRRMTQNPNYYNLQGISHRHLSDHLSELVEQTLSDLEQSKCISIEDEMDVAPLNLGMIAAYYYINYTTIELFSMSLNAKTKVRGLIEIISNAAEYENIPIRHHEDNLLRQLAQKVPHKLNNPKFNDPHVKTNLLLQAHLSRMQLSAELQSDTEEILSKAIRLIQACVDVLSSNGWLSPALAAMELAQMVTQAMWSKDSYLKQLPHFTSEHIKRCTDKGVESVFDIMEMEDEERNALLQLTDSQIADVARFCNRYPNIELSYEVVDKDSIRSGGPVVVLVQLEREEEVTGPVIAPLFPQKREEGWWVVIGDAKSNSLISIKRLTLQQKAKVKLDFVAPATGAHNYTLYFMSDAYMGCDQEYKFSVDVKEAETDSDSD
Assay [4] addresses Cyclin-dependent kinase 7 (Homo sapiens, UniProt P50613).
Assay [5] deals with Inosine-5'-monophosphate dehydrogenase 2 (Homo sapiens, UniProt P12268).
Assay [6] has as its target T3, Serine/threonine-protein kinase Nek9 (Homo sapiens, UniProt Q8TD19).
T3 sequence (Q8TD19 whole entry): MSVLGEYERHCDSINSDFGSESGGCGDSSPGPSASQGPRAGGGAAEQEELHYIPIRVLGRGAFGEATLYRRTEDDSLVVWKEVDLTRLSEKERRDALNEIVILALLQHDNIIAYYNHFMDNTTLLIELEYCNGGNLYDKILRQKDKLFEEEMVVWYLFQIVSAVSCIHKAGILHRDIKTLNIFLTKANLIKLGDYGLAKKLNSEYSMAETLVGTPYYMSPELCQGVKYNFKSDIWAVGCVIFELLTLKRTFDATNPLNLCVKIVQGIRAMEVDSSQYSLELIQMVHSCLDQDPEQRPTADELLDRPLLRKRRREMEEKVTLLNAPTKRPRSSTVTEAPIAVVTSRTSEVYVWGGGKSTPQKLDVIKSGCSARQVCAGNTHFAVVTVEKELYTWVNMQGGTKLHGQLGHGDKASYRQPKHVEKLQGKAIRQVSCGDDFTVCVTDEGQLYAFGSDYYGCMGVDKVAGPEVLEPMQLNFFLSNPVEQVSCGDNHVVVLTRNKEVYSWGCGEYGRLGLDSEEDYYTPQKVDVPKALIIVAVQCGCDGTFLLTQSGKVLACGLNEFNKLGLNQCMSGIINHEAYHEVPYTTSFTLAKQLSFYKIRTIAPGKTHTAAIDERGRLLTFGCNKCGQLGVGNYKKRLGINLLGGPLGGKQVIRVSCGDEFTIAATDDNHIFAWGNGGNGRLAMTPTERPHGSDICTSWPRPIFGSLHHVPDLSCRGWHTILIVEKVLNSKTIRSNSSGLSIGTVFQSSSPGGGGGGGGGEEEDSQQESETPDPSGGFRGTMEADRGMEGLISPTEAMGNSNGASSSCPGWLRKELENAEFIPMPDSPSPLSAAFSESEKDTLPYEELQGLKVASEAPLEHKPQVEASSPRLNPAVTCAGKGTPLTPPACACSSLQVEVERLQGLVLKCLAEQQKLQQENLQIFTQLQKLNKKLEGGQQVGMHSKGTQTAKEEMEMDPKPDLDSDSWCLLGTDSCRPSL

For assay [7], the target named is Protein kinase C alpha type (Homo sapiens, UniProt P17252).
Assay [8] deals with DNA topoisomerase 2-beta (Homo sapiens, UniProt Q02880).
DNA topoisomerase 2-beta, sequence (Q02880 whole entry): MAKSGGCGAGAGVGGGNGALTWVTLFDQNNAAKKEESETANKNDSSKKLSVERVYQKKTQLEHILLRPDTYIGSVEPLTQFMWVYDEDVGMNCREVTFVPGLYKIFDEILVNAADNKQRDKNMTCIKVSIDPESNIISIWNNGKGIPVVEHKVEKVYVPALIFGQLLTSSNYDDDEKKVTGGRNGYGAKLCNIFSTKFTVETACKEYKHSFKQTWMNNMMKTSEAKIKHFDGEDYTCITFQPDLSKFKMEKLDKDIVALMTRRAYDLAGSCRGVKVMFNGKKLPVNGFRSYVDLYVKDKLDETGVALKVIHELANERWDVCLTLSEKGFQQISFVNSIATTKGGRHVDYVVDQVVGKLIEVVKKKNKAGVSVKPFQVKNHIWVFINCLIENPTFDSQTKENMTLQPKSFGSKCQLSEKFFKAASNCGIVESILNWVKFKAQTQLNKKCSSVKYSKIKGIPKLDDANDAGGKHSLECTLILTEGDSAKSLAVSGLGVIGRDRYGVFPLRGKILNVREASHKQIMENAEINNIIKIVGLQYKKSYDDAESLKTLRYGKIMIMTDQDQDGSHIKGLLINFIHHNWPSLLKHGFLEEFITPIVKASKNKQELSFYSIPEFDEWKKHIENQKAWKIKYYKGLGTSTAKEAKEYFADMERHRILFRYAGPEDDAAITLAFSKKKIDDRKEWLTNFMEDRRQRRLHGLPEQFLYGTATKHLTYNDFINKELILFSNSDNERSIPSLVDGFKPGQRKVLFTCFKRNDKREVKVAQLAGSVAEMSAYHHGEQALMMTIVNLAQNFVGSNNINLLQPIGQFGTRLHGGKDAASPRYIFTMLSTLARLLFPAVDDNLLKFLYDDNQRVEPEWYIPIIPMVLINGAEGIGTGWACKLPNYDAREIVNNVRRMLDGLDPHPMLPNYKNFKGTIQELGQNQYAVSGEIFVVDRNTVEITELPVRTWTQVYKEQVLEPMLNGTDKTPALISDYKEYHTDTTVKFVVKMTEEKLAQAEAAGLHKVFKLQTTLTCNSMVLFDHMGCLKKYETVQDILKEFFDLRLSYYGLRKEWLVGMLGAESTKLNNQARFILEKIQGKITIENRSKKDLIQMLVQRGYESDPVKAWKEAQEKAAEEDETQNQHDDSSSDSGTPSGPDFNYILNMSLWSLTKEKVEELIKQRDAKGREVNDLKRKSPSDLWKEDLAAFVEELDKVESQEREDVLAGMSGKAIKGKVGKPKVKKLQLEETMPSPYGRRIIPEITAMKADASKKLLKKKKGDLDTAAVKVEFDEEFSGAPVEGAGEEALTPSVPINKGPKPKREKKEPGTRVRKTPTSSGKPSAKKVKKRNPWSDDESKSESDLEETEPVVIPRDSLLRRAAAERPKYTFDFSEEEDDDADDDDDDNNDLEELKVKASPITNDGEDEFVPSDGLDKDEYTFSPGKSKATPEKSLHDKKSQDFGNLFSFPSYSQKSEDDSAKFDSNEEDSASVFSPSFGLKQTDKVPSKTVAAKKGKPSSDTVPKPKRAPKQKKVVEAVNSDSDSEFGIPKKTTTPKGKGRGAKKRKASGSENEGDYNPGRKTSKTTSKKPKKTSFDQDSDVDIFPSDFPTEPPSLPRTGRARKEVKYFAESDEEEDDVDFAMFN
Assay [9] concerns the target cAMP-dependent protein kinase catalytic subunit beta (Homo sapiens, UniProt P22694).
Assay [10] concerns the target Mitogen-activated protein kinase 11 (Homo sapiens, UniProt Q15759).
Assay [11] addresses Ras-related protein Rab-6A (Homo sapiens, UniProt P20340).

The Kd is the equilibrium constant for the complex coming apart.
Further: in the data inactive means no Kd found up to 30 µM.

Ras-related protein Rab-6A, sequence (P20340 whole entry): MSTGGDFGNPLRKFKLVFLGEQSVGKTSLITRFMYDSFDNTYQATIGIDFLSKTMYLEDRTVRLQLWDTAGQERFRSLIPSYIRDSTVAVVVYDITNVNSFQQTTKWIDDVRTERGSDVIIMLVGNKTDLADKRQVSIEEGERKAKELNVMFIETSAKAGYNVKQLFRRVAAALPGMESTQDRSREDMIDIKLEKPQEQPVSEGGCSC
Mitogen-activated protein kinase 11, sequence (Q15759 whole entry): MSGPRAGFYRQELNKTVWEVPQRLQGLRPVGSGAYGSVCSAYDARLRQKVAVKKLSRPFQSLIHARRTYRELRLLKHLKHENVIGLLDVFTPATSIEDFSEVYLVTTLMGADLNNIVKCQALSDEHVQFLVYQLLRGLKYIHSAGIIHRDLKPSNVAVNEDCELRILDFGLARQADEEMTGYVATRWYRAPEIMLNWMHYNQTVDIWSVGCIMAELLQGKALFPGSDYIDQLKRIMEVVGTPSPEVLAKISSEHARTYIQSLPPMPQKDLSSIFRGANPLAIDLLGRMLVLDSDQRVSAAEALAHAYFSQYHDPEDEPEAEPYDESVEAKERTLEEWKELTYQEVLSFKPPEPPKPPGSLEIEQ
Cyclin-dependent kinase 7, sequence (P50613 whole entry): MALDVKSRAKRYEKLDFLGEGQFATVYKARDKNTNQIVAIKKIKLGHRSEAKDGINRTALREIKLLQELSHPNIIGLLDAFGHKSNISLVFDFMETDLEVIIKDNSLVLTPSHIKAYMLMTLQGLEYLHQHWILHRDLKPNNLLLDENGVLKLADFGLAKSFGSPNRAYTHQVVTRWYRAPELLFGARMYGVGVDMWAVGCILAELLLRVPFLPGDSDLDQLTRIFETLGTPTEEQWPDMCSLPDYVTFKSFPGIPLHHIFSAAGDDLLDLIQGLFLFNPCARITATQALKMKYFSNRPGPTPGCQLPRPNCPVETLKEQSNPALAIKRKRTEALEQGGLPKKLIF

On to `O=C1NC(=O)[C@@H](c2cn3c4c(cccc24)CCC3)[C@@H]1c1c[nH]c2ccccc12` [TIVANTINIB], for which the Kd in assay [1], in assay [2], in [3], in assay [4], in assay [5] and in assay [6] was > 30 µM (inactive) in each case. Besides, the Kd in [7], in assay [8], in assay [9], in [10] and in [11] was > 30 µM (inactive) throughout.
On to `C[C@@H](NC(=O)c1ncnc(N)c1Cl)c1ncc(C(=O)Nc2cc(C(F)(F)F)c(Cl)cn2)s1` [TOVORAFENIB], for which the equilibrium dissociation constant (Kd) was 0.296 µM (active) in [1]; > 30 µM (inactive) in [2]; > 30 µM (inactive) in [3]; > 30 µM (inactive) in [4]; > 30 µM (inactive) in [5]; > 30 µM (inactive) in assay [6]. The Kd in assay [7] is > 30 µM (inactive); in [8], > 30 µM (inactive); in assay [9] it was > 30 µM (inactive); in assay [10] it was 0.684 µM (active); in assay [11], > 30 µM (inactive).
As to `Cc1cc(Nc2ncnc3ccc(NC4=NC(C)(C)CO4)cc23)ccc1Oc1ccn2ncnc2c1` [TUCATINIB], the Kd in assay [1], in assay [2], in assay [3], in assay [4], in assay [5] and in assay [6] was > 30 µM (inactive) in each case. Besides, the Kd in [7], in [8], in assay [9], in assay [10] and in assay [11] was > 30 µM (inactive) each time.
For the molecule `CC(C)c1cc(CNc2nc(Nc3cc(C4CC4)[nH]n3)cc(N3CCN(C)CC3)n2)on1` [XL-228], the Kd in [1] was 0.003 µM (active); in assay [2] it was > 30 µM (inactive); in assay [3] it was > 30 µM (inactive); in [4] it was 1.44 µM (active); in assay [5], > 30 µM (inactive); in assay [6], > 30 µM (inactive). Besides, the Kd in [7] was 2.28 µM (active); in assay [8], > 30 µM (inactive); in assay [9], > 30 µM (inactive); in [10], > 30 µM (inactive); in assay [11] it was > 30 µM (inactive).
Take `C[C@@H](N)c1ccc(C(=O)Nc2ccnc3[nH]ccc23)cc1` [Y-39983]: the Kd in assay [1], in assay [2], in assay [3], in [4], in assay [5] and in assay [6] was > 30 µM (inactive) throughout. The Kd in assay [7] is 3.28 µM (active); in assay [8], > 30 µM (inactive); in [9], > 30 µM (inactive); in assay [10] it was > 30 µM (inactive); in assay [11], > 30 µM (inactive).
Regarding `CN1C/C=C/CCOc2cccc(c2)-c2ccnc(n2)Nc2cccc(c2)C1` [ZOTIRACICLIB], the Kd is > 30 µM (inactive) in assay [1]; > 30 µM (inactive) in assay [2]; > 30 µM (inactive) in assay [3]; 0.473 µM (active) in assay [4]; > 30 µM (inactive) in [5]; > 30 µM (inactive) in [6]. The Kd was 0.885 µM (active) in assay [7]; > 30 µM (inactive) in assay [8]; > 30 µM (inactive) in [9]; > 30 µM (inactive) in [10]; > 30 µM (inactive) in assay [11].
